Read-outs that look alike come from different tables or passages of the source. Ends that are not written are not given here.
Assays:
HLA-A2402 molecule = HLA-A2402 molecule (Homo sapiens, UniProt P04439, D101N/D140Y/D185E/E176V/E190D/F33S/G103R/G107R/I119L/I121M/I306V/K335N/L105A/L180Q/L300P/N151K/N90K/Q86E/Q94H/R106L/R138H/R89G/T104I/T345S/V100E/W191G/Y123F); assay: Experiment of binding peptide to HLA-A2402 molecule (C1R-A24 cells, flow cytometry)
Procedure: (§1) The ability of a peptide to bind to an HLA-A2402 molecule, which is a product of the HLA-A*2402 gene, was measured using C1R-A24 cells expressing the HLA-A*2402 gene (cells prepared by Professor Masafumi Takiguchi, Kumamoto University being supplied with permission by Assistant Professor Masaki Yasukawa, Ehime University).
(§2) C1R-A24 cells were first exposed to acidic conditions at a pH of 3.3 for 30 seconds, thus dissociating and removing a light chain β2m, which is associated with HLA class I molecules in common, and an endogenous peptide originally bound to the HLA-A2402 molecule. After neutralization, purified β2m was added to C1R-A24 cells, the obtained product was added to serial dilutions of a peptide, and incubated on ice for 4 hours. Staining was carried out using fluorescently labeled monoclonal antibody 17A12, which recognizes association (MHC-pep) of the three members, that is, HLA-A2402 molecule, the peptide, and β2m, which had reassociated during the incubation.
(§3) Subsequently, the MHC-pep count per C1R-A24 cell (proportional to the strength of fluorescence of the above-mentioned fluorescent antibody) was quantitatively measured using an FACScan fluorescence-activated cell sorter (Becton Dickinson Biosciences). A binding dissociation constant Kd value between the HLA-A24 molecule and the peptide was calculated from the average strength of fluorescence per cell by a published method (Udaka et al., Immunogenetics, 51, 816-828, 2000).

[1] = system: human HLA-A type molecule; assay: Binding experiments summarised for HLA-A type molecules
Procedure: as §1, §2, §3
The ability of a peptide to bind to an HLA-A0201 molecule, which is a product of the HLA-A*0201 gene, was measured using strain JY cells expressing the HLA-A*0201 (obtained from ATCC (American Type Culture Collection)).
JY cells were first exposed to acidic conditions at a pH of 3.8 for 30 seconds, thus dissociating and removing a light chain β2m and an endogenous peptide, which were noncovalently associated with the HLA-A0201 molecule. After neutralization, a reassociation experiment was carried out. The above-mentioned JY cells and the purified β2m were added to stepped serial dilutions of peptide for which the binding ability was to be measured, and incubation was carried out on ice for 4 hours. HLA-A0201 molecules that had reassociated up to this point were stained using the associating type specific fluorescently-labeled monoclonal antibody BB7.2.
Subsequently, the amount of fluorescence per cell was measured using a flow cytometer and a dissociation constant Kd value was calculated by a published method (Udaka et al., Immunogenetics, 51, 816-828, 2000).
(§4) The ability of a peptide to bind to an HLA-A0206 molecule, which is a product of the HLA-A*0206 gene, was measured using RA2.6 cells (cell strain newly prepared in Kochi University), wherein cDNA of the HLA-A*0206 gene is expressed in RAMS cells, which are mouse peptide transporter TAP-deficient cells.
(§5) RA2.6 cells were first cultured overnight at 26° C., serial dilutions of peptide were added to HLA-A0206 molecules having no peptide bound thereto that were deposited on the cell surface, and binding was carried out at room temperature for 30 minutes.
(§6) Subsequently, culturing was carried out at 37° C. for 3.5 hours, empty HLA-A0206 molecules to which no peptide were bound was denatured, and the tertiary structure was lost.
(§7) The cells were stained by adding thereto fluorescently labeled monoclonal antibody 17A10 or 17A12, which specifically recognize the peptide-binding HLA-A0206 molecule, and incubating on ice for 20 minutes.
(§8) Subsequently, the amount of fluorescence per cell was measured using a flow cytometer, and a dissociation constant Kd value was calculated by a published method (Udaka et al., Immunogenetics, 51, 816-828, 2000).

HLA-A0201 molecule = HLA-A0201 molecule (Homo sapiens, UniProt P04439, D140Y/D185E/D98H/E176V/E277Q/G131W/G231S/I119V/I121R/I166T/I218V/L300P/L318F/N151K/N90K/P208A/P217A/Q86G/Q94H/R138H/R169H/T345S); assay: Experiment of binding peptide to HLA-A0201 molecule (JY cells, flow cytometry); conditions: expressed as -log Kd value
HLA-A0206 molecule = target: T1, HLA-A0206 molecule (Homo sapiens, UniProt P04439, D140Y/D185E/D98H/E176V/E277Q/F33Y/G131W/G231S/I119V/I121R/I166T/I218V/L300P/L318F/N151K/N90K/P208A/P217A/Q86G/Q94H/R138H/R169H/T345S); assay: Experiment of binding peptide to HLA-A0206 molecule (RA2.6 cells, flow cytometry)
T1 construct: expressed in transfected cells; host or cells: RA2.6 cells (RAMS mouse TAP-deficient cells expressing HLA-A*0206 cDNA)
Procedure: as §4, §5, §6, §7, §8

[2] = binding to HLA-A2402 molecule, C1R-A24 cells, read-out: BINDING EXPERIMENT DATA (converted)
[3] = binding to HLA-A0206 molecule, RA2.6 cells, read-out: BINDING EXPERIMENT DATA (converted)

Compound | Kd (HLA-A2402 molecule; [2]) [µM] | binding to a human HLA-A type molecule ([1]; result in words) | other results
ILLGRHSLF [compound 3] | 0.0335 | experimentally confirmed to bind | 
ILSRIVGGW [compound 6] | 0.062 | experimentally confirmed to bind | 
VHPQKVTKF [compound 7] | 0.223 | experimentally confirmed to bind | 
FHPEDTGQV [compound 13] |  |  | Kd (HLA-A0201 molecule): 2.96 µM
DLPTQEPAL [compound 4] | 5.87 | experimentally confirmed to bind | 
WVPVVFLTL [compound 2] | 0.0509 | experimentally confirmed to bind | 
CC(C)C[C@H](NC(=O)[C@@H](NC(=O)CN)C(C)C)C(=O)N[C@H](C(=O)N[C@@H](Cc1c[nH]cn1)C(=O)N1CCC[C@H]1C(=O)N[C@@H](CCC(N)=O)C(=O)N[C@@H](Cc1c[nH]c2ccccc12)C(=O)N[C@H](C(=O)O)C(C)C)C(C)C [compound 19] |  |  | Kd (HLA-A0206 molecule; [3]): 0.525 µM
DLPTQEPAL [compound 27] |  |  | Kd (HLA-A0206 molecule; [3]): 5.44 µM
WVPVVFLTL [compound 24] |  |  | Kd (HLA-A0206 molecule; [3]): 0.182 µM
QVFQVSHSF [compound 5] | 0.0478 | experimentally confirmed to bind | 
GVLQGITSW [compound 8] | 4.2 | experimentally confirmed to bind | 
CC(C)C[C@H](NC(=O)[C@@H](NC(=O)[C@H](Cc1c[nH]c2ccccc12)NC(=O)[C@H](CCC(N)=O)NC(=O)[C@@H]1CCCN1C(=O)[C@H](Cc1c[nH]cn1)NC(=O)[C@@H](NC(=O)[C@H](CC(C)C)NC(=O)[C@@H](N)C(C)C)C(C)C)C(C)C)C(=O)O [compound 9] | 0.458 | experimentally confirmed to bind | 
CC(C)C[C@H](N)C(=O)N[C@H](C(=O)N[C@@H](C)C(=O)N[C@@H](CO)C(=O)N[C@@H](CCCNC(=N)N)C(=O)NCC(=O)N[C@@H](CCCNC(=N)N)C(=O)N[C@@H](C)C(=O)N[C@H](C(=O)O)C(C)C)C(C)C [compound 22] |  |  | Kd (HLA-A0206 molecule; [3]): 5.58 µM
WVLTAAHCI [compound 12] |  |  | Kd (HLA-A2402 molecule): 23.2 µM; binding to a human HLA-A type molecule [1]: experimentally confirmed to bind
WVLTAAHCI [compound 20] |  |  | Kd (HLA-A0206 molecule): 1.13 µM

— patent US20080306243A1, “Hla-Binding Peptide, and Dna Fragment and Recombinant Vector Coding for Said Hla-Binding Peptide” (NEC CORPORATION, priority 2005, published 2008)
